# Measured values from US20170197996A1, “Cholinesterase Inhibitors” (priority 2012, published 2017).
# Tested on: acetylcholinesterase
# Type: in vivo, rat
# Conditions: Trials C, D; 0.030 mg/Kg dose 10 min prior to tracer; FIG. 11, FIG. 12 vs FIG. 8
structure (smiles),measurement,value
CCOP(=O)(OCC)Oc1ccc([N+](=O)[O-])cc1 [paraoxon],reduction of tracer [^18F]-6 SUV radioactivity signals across all brain ROIs,significant reduction of SUV radioactivity signals
